Assay results taken from patent US8569344B2, “N-piperidinyl acetamide derivatives as calcium channel blockers” (Zalicus Pharmaceuticals Ltd., priority 2008, dated 2013).
Read-outs that look alike come from different tables or passages of the source.

Columns and labels:
Type in all cases: cell-based
[1] = biological target: T1, human α1G T-type channels (Homo sapiens, UniProt O43497); assay: T-type calcium channel block, whole cell patch clamp in HEK cells (α1G); conditions: HEK cells, patch clamp, mainly non-inactivated protocol; values above 10 μM shown as 10 μM, below 0.30 μM shown as 0.30 μM; read-out: T-type Calcium Channel Block α1G IC50
T1 construct: expressed in transfected cells; host or cells: HEK 293

[2] = biological target: T2, human α1H T-type channels (Homo sapiens, UniProt O95180); assay: T-type calcium channel block, whole cell patch clamp in HEK cells (α1H); conditions: HEK cells, patch clamp, mainly non-inactivated protocol; values above 10 μM shown as 10 μM; read-out: T-type Calcium Channel Block α1H IC50
T2 construct: expressed in transfected cells; host or cells: HEK 293

hERG K+ channel = hERG K+ channel (Homo sapiens, UniProt Q12809); assay: hERG K+ Channel Block

T1 sequence (O43497 whole entry): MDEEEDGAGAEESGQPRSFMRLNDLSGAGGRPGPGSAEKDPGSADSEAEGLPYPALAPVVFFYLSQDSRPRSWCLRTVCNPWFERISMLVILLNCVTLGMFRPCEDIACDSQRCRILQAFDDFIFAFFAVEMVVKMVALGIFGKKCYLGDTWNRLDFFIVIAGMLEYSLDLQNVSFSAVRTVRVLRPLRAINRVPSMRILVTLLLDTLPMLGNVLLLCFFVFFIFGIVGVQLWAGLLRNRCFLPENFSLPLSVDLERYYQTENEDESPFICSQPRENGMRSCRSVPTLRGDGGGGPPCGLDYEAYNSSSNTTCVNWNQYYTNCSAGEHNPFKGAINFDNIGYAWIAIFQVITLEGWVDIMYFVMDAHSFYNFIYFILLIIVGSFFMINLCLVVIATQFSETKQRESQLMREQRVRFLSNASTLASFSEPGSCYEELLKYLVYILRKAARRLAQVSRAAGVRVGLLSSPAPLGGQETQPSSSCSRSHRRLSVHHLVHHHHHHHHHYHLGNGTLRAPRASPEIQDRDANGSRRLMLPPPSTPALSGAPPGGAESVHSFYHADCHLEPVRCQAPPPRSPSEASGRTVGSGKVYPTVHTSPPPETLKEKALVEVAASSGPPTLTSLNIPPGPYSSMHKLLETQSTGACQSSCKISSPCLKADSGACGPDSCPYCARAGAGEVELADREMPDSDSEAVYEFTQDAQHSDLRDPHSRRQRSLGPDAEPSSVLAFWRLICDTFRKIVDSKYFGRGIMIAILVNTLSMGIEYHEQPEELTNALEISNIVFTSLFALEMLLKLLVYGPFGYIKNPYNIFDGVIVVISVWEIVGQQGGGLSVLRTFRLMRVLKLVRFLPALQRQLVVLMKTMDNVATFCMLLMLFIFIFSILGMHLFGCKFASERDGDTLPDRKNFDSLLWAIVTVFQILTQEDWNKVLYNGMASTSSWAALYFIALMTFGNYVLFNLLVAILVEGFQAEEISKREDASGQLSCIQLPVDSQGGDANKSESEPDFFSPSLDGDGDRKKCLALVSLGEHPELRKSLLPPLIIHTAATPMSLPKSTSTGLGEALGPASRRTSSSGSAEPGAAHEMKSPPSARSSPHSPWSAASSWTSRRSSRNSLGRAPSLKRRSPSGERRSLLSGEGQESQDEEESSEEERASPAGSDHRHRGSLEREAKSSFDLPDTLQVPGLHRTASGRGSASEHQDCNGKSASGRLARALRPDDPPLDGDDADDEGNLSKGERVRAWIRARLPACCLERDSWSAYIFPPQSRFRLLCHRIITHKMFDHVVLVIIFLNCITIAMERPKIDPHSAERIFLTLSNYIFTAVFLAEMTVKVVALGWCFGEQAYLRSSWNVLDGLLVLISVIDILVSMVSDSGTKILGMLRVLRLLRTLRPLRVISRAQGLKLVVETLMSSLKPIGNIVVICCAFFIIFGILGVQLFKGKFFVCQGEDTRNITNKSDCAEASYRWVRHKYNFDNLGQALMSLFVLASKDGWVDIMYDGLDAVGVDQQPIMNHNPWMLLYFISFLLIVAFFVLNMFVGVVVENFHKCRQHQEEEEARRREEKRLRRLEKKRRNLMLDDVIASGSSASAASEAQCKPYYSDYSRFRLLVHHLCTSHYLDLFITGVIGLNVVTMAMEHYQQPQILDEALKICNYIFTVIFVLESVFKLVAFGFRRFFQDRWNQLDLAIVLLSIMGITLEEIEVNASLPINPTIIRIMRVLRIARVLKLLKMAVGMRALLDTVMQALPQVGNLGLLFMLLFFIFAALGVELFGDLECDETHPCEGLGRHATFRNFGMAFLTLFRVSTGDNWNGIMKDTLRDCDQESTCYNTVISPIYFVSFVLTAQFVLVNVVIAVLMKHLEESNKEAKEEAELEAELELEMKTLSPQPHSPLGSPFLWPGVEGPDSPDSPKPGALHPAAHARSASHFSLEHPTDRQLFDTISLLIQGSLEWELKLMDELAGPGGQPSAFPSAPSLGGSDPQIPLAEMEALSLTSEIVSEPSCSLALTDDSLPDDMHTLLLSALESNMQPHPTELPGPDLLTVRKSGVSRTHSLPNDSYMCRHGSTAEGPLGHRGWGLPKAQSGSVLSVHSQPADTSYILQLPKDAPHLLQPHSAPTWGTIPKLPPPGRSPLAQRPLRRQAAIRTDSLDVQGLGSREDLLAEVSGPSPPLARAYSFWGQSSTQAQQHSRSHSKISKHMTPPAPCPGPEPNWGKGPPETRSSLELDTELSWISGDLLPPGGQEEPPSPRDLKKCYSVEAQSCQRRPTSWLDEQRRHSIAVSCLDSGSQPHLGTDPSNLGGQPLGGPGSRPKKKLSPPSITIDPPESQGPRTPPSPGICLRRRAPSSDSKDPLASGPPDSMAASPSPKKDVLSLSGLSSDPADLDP
T2 sequence (O95180 whole entry): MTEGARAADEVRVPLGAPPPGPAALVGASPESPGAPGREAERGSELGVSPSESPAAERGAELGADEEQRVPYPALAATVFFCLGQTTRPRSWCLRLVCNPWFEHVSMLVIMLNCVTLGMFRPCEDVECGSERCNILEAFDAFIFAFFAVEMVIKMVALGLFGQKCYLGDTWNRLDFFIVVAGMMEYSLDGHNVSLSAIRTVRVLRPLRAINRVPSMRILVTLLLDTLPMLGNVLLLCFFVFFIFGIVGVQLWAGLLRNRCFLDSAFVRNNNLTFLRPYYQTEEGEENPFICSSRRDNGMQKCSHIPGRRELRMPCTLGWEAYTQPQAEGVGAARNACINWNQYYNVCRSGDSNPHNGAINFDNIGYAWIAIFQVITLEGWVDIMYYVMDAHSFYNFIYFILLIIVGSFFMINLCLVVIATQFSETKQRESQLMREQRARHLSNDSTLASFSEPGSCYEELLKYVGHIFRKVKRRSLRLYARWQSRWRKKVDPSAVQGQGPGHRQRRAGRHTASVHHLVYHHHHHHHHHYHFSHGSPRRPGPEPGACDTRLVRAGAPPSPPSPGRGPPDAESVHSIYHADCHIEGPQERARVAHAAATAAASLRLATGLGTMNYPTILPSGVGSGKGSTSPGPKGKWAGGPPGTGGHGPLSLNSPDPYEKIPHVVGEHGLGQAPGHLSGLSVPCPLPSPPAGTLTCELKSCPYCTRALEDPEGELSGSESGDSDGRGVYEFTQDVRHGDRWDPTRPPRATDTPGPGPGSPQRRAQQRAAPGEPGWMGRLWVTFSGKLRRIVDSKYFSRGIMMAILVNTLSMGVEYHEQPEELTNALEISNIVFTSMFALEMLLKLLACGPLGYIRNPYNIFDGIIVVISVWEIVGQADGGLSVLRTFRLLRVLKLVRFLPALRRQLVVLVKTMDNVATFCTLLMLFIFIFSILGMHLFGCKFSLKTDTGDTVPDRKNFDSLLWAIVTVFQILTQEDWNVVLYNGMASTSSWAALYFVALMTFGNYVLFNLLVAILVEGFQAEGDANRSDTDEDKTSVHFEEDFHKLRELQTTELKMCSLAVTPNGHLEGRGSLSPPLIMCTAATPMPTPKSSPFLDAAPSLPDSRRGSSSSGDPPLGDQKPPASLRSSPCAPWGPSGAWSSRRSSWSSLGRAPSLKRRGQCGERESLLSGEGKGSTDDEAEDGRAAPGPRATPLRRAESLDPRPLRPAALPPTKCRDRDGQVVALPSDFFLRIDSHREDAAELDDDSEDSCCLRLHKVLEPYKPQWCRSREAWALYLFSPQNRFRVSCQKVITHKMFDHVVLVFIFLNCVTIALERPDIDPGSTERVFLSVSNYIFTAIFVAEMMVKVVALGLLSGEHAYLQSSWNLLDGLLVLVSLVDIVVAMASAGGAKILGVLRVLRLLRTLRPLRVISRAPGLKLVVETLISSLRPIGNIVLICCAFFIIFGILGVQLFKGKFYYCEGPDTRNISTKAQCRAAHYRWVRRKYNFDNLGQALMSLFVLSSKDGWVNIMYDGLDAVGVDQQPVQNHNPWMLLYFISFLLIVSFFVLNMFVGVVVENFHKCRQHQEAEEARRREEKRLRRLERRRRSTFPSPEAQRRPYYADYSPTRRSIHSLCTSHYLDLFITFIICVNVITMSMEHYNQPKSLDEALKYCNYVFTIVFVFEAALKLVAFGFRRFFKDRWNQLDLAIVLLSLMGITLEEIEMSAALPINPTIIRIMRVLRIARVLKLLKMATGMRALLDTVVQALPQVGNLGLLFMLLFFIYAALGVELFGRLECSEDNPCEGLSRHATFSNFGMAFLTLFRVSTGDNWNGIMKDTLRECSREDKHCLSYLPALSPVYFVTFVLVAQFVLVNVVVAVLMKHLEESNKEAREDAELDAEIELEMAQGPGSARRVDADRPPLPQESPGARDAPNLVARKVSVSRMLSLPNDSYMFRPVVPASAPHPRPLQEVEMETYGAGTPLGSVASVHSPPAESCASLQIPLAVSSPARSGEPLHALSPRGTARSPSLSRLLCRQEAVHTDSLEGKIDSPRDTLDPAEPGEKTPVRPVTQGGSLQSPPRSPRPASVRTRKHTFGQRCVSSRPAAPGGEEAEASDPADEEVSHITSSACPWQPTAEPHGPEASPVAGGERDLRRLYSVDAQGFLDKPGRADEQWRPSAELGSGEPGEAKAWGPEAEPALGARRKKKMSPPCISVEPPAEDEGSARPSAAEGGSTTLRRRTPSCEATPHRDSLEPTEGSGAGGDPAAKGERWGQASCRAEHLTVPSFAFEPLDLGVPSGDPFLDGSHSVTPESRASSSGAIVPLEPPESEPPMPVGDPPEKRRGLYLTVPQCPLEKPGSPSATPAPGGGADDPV

Structure (SMILES)	IC50 [1]	IC50 [2]	IC50 (hERG K+ channel)	IC50 (hERG K+ channel; human)
COc1cc(F)cc(C(=O)NCC2CCN(CCNC(=O)C3(C(F)(F)F)CC3)CC2)c1 [Compound 499, 3-fluoro-5-methoxy-N-((1-(2-(1-(trifluoromethyl)cyclopropanecarbox-amido)ethyl)piperidin-4-yl)methyl) benzamide]	< 0.3 µM	0.14 µM	11.1 µM	
CC1(C)COCCN1C(=O)CN1CCC(CNC(=O)c2cc(C(F)(F)F)cc(C(F)(F)F)c2)CC1 [Compound 578, N-((1-(2-(3,3-dimethylmorpholino)-2-oxoethyl)piperidin-4-yl)methyl)-3,5-bis(trifluoromethyl)benzamide]	< 0.3 µM	0.16 µM	5.4 µM	
CN(C(=O)CN1CCC(CNC(=O)c2cc(F)cc(C(F)(F)F)c2)CC1)C1(C)CCC1 [Compound 594, 3-fluoro-N-((1-(2-(methyl(1-methylcyclobutyl)amino)-2-oxoethyl)piperidin-4-yl)methyl)-5-(trifluoromethyl)benzamide]		0.16 µM		≥ 17 µM
CC(C)S(=O)(=O)NCCN1CCC(CC(=O)Nc2cc(Br)cc(C(F)(F)F)c2)CC1 [Compound 391, N-(3-bromo-5-(trifluoromethyl)phenyl)-2-(1-(2-(1-methylethylsulfonamido)ethyl)piperidin-4-yl)acetamide]	< 0.3 µM		0.63 µM	
O=C(NCC1CCN(CCNS(=O)(=O)C(F)(F)F)CC1)c1cc(Br)cc(C(F)(F)F)c1 [Compound 115, 3-bromo-5-(trifluoromethyl)-N-((1-(2-(trifluoromethylsulfonamido)ethyl)piperidin-4-yl)methyl)benzamide]		0.23 µM		≥ 8.3 µM
CC(C)CS(=O)(=O)NCCN1CCC(CC(=O)Nc2cc(F)cc(C(F)(F)F)c2)CC1 [Compound 427, N-(3-fluoro-5-(trifluoromethyl)phenyl)-2-(1-(2-(2-methylpropylsulfonamido)ethyl)piperidin-4-yl)acetamide]	< 0.3 µM		0.45 µM	
CCC(C)(C)NC(=O)CN1CCC(CNC(=O)c2cc(C(F)(F)F)cc(C(F)(F)F)c2)CC1 [Compound 346, N-((1-(2-oxo-2-(tert-pentylamino)ethyl)piperidin-4-yl)methyl)-3,5-bis(trifluoromethyl) benzamide]	< 0.3 µM	0.05 µM		
CC(C)S(=O)(=O)NCCN1CCC(CNC(=O)c2cc(Br)cc(Br)c2)CC1 [Compound 319, 3,5-dibromo-N-((1-(2-(1-methylethylsulfonamido)ethyl)piperidin-4-yl)methyl)benzamide]	< 0.3 µM	0.15 µM		
CC(C)NC(=O)CN1CCC(CNC(=O)c2cccc(C(F)(F)F)c2)CC1 [Compound 440, N-((1-(2-(isopropylamino)-2-oxoethyl)piperidin-4-yl)methyl)-3-(trifluoromethyl)benzamide]	> 10 µM	> 10 µM		
CC(C)S(=O)(=O)NCCN1CCC(CNC(=O)c2cc(C(F)(F)F)cc(C(F)(F)F)c2)CC1 [Compound 20, N-((1-(2-(1-methylethylsulfonamido)ethyl)piperidin-4-yl)methyl)-3,5-bis(trifluoromethyl)benzamide]	< 0.3 µM	0.4 µM		
CC(C(=O)NC(C)(C)C)N1CCC(CNC(=O)c2cc(F)cc(Cl)c2)CC1 (centres unmarked) [Compound 546, N-((1-(1-(tert-butylamino)-1-oxo-propan-2-yl)piperidin-4-yl)methyl)-3-chloro-5-fluorobenzamide]	< 0.3 µM	0.13 µM		
CC(C)NC(=O)NC1(CN2CCC(CNC(=O)c3cc(C(F)(F)F)cc(C(F)(F)F)c3)CC2)CCCC1 [Compound 15, N-((1-((1-(3-isopropylureido)cyclopentyl)methyl)piperidin-4-yl)methyl)-3,5-bis(trifluoromethyl)benzamide]	1.03 µM	3.04 µM		
COc1cc(F)cc(C(=O)NCC2CCN(CCNS(=O)(=O)C(C)C)CC2)c1 [Compound 318, 3-fluoro-5-methoxy-N-((1-(2-(1-methylethylsulfonamido)ethyl)piperidin-4-yl)methyl)benzamide]	0.5 µM	0.87 µM		
CC(C)(C)OC(=O)NCCN1CCC(CNC(=O)c2cc(C(C)(C)C)cc(C(C)(C)C)c2)CC1 [Compound 49, tert-butyl 2-(4-((3,5-di-tert-butylbenzamido)methyl)piperidin-1-yl)ethylcarbamate]	0.34 µM	7.3 µM		
C[C@H]1CC[C@H](NCC(=O)N2CCC(CNC(=O)c3cc(F)cc(C(F)(F)F)c3)CC2)CC1 [Compound 291, 3-fluoro-N-((1-(2-((1r,4r)-4-methylcyclohexylamino)acetyl)piperidin-4-yl)methyl)-5-(trifluoromethyl)benzamide]	< 0.3 µM	0.51 µM		
CC(C)(C)NC(=O)CN1CCC(CNC(=O)c2ccnc(N3CCCC3)c2)CC1 [Compound 373, N-((1-(2-(tert-butylamino)-2-oxoethyl)piperidin-4-yl)methyl)-2-(pyrrolidin-1-yl)isonicotinamide]	> 10 µM	> 10 µM		
O=C(NCC1CCN(CCNC(=O)C2CC2)CC1)c1cc(C(F)(F)F)cc(C(F)(F)F)c1 [Compound 59, N-((1-(2-(cyclopropanecarboxamido)ethyl)piperidin-4-yl)methyl)-3,5-bis(trifluoromethyl)benzamide]		1.66 µM	2.8 µM	
Cc1cc(C)cc(C(=O)NCC2CCN(CC(=O)N(C)C(C)(C)C)CC2)c1 [Compound 539, N-((1-(2-(tert-butyl(methyl)amino)-2-oxoethyl)piperidin-4-yl)methyl)-3,5-dimethylbenzamide]	1.68 µM	0.51 µM		
O=C(CN1CCC(CNC(=O)c2cccc(Cl)c2)CC1)NN1CCCCC1 [Compound 527, 3-chloro-N-((1-(2-oxo-2-(piperidin-1-ylamino)ethyl)piperidin-4-yl)methyl)benzamide]	2.65 µM	2.84 µM		
CCCNC(=O)CN1CCC(CNC(=O)c2cc(F)cc(Cl)c2)CC1 [Compound 452, 3-chloro-5-fluoro-N-((1-(2-oxo-2-(propylamino)ethyl)piperidin-4-yl)methyl)benzamide]	4.24 µM	7.92 µM		
COC(=O)NC1(CN2CCC(CNC(=O)c3cc(C(F)(F)F)cc(C(F)(F)F)c3)CC2)CCCC1 [Compound 16, methyl 1-((4-((3,5-bis(trifluoromethyl)benzamido)methyl)piperidin-1-yl)methyl)cyclopentyl-carbamate]	< 0.3 µM	0.19 µM		
O=C(NCC1CCN(CCN2C(=O)NC3(CCCCC3)C2=O)CC1)c1cc(F)cc(C(F)(F)F)c1 [Compound 568, N-((1-(2-(2,4-dioxo-1,3-diazaspiro[4.5]decan-3-yl)ethyl)piperidin-4-yl)methyl)-3-fluoro-5-(trifluoromethyl)benzamide]	1.36 µM	0.89 µM		
CC(C)(C)C(O)CN1CCC(CC(=O)NCc2ccc(Oc3ccccc3)cc2)CC1 (centres unmarked) [Compound 174, 2-(1-(2-hydroxy-3,3-dimethylbutyl)piperidin-4-yl)-N-(4-phenoxybenzyl) acetamide]	2.48 µM	> 10 µM		
CC(C)CS(=O)(=O)NCCN1CCC(CNC(=O)c2cc(F)cc(C(F)(F)F)c2)CC1 [Compound 26, 3-fluoro-N-((1-(2-(2-methylpropylsulfonamido)ethyl)piperidin-4-yl)methyl)-5-(trifluoromethyl)benzamide]		0.2 µM	2.6 µM	
